According to patent publication US8680159B2, “Bradykinin 1 receptor modulating compounds” (Gruenenthal GmbH, priority 2010, dated 2014):

What was measured:
[1] = target: T1, human B1R receptor (CHO K1 cells stably transfected with the human B1R gene) (Homo sapiens, UniProt P46663); assay: Functional study on the bradykinin receptor 1 (B1R), Ca2+ fluorescence (Fluo-4) FLIPR/Novostar assay, hB1R cells; format: cell-based; conditions: CHO-K1, read-out: % inhibition (human B1R) at 10 μM
T1 construct: expressed in transfected cells; host or cells: CHO K1 cells (Chinese hamster ovary), stably transfected
T1 sequence (P46663 1-353): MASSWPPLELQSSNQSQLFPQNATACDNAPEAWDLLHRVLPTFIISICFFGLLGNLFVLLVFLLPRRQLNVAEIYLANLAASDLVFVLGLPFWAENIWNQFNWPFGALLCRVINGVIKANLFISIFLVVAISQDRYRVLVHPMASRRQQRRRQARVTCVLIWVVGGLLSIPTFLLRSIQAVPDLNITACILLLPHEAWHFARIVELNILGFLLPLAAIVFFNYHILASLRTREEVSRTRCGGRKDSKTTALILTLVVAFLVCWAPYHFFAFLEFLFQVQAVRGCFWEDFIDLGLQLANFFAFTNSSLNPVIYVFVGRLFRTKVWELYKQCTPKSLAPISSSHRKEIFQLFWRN
Outline: (§1)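 Test compounds (10 μM) were added first and the Ca2+ rise was scored as % activation against Lys-Des-Arg9-bradykinin (≥50 nM, human) or Des-Arg9-bradykinin (≥1 μM, rat). After 6-20 min, the matching agonist was given at its EC80, and % inhibition relative to maximal achievable inhibition was calculated.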

[2] = target: T2, B1R receptor of the rat (CHO K1 cells stably transfected with the B1R gene of the rat) (Rattus norvegicus, UniProt P97583); assay: Functional study on the bradykinin receptor 1 (B1R), Ca2+ fluorescence (Fluo-4) FLIPR/Novostar assay, rB1R cells; format: cell-based; conditions: CHO-K1, 10 μM, read-out: % inhibition (rat B1R) at 10 μM
T2 construct: expressed in transfected cells; host or cells: CHO K1 cells (Chinese hamster ovary), stably transfected
T2 sequence (P97583 1-337): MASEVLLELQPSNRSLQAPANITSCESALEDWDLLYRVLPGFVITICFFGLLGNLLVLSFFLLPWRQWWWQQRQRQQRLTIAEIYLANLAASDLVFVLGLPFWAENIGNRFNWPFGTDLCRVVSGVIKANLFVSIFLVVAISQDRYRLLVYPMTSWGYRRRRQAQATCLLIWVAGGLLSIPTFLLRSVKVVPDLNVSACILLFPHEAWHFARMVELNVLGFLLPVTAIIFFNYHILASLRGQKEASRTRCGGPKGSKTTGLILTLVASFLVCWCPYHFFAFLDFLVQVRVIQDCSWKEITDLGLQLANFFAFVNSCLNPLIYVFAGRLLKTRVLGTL
Outline: as §1

Structure (SMILES) | inhibition at 10 µM [1] [%] | inhibition at 10 µM [2] [%]
CN(C(=O)c1ccc2c(c1)[C@H](NC(=O)c1cccnc1C(F)(F)F)CC2)C1CCN(c2ccncc2)CC1 [Example H-37, N-[(1R)-6-[Methyl-(1-pyridin-4-yl-piperidin-4-yl)-carbamoyl]-2,3-dihydro-1H-inden-1-yl]-2-(trifluoromethyl)-pyridine-3-carboxylic acid amide] | 100 | 107
O=C(N[C@@H]1CCc2ccc(C(=O)N(C3CC3)C3CCN(c4ccncc4)CC3)cc21)c1ccccc1Cl [Example H-38, (3R)-3-[(2-Chloro-benzoyl)amino]-N-cyclopropyl-N-(1-pyridin-4-yl-piperidin-4-yl)-2,3-dihydro-1H-indene-5-carboxylic acid amide] | 100 | 103
CN(C(=O)c1ccc2c(c1)[C@H](NC(=O)c1ccccc1Cl)CC2)C1CCN(c2ccncc2)C1 (stereo partly drawn) [Example H-39, (3R)-3-[(2-Chloro-benzoyl)amino]-N-methyl-N-(1-pyridin-4-yl-pyrrolidin-3-yl)-2,3-dihydro-1H-indene-5-carboxylic acid amide] | 100 | 100
CN1CCC(N2CCC(N(C)C(=O)c3ccc4c(c3)[C@H](NC(=O)c3ccccc3Cl)CC4)CC2)CC1 [Example H-40, (3R)-3-[(2-Chloro-benzoyl)amino]-N-methyl-N-[1-(1-methyl-piperidin-4-yl)-piperidin-4-yl]-2,3-dihydro-1H-indene-5-carboxylic acid amide] | 52 | 73
COc1ncccc1C(=O)N[C@@H]1CCc2ccc(C(=O)N(C)C3CCN(c4ccncc4)CC3)cc21 [Example H-41, 2-Methoxy-N-[(1R)-6-[methyl-(1-pyridin-yl-piperidin-4yl)-carbamoyl]-2,3-dihydro-1H-inden-1-yl]-pyridine-3-carboxylic acid amide] | 100 | 98
CN1CCC(N2CCC(NC(=O)c3ccc4c(c3)CC[C@H]4N3Cc4cccc(Cl)c4C3=O)CC2)CC1 [Example H-42, (1R)-1-(4-Chloro-3-oxo-1,2-dihydro-isoindol-2-yl)-N-[1-(1-methyl-piperidin-4-yl)-piperidin-4-yl]-2,3-dihydro-1H-indene-5-carboxylic acid amide] | 65 | 18
CN(C(=O)c1ccc2c(c1)CC[C@H]2N1Cc2cccc(Cl)c2C1=O)C1CCN(CCc2ccncc2)CC1 [Example H-43, (1R)-1-(4-Chloro-3-oxo-1,2-dihydro-isoindol-2-yl)-N-methyl-N-[1-(2-pyridin-4-yl-ethyl)-piperidin-4-yl]-2,3-dihydro-1H-Indene-5-carboxylic acid amide] | 22 | 51
CN(C(=O)c1ccc2c(c1)OCC[C@H]2NC(=O)c1ccccc1Cl)C1CCN(c2ccncc2)CC1 [Example H-44, (4R)-4-[(2-Chloro-benzoyl)amino]-N-methyl-N-(1-pyridin-4-yl-piperidin-4-yl)-3,4-dihydro-2H-chromene-7-carboxylic acid amide] | 94 | 94
CN(C(=O)c1ccc2c(c1)OCC[C@H]2N1Cc2cccc(Cl)c2C1=O)C1CCN(c2ccncc2)CC1 [Example H-45, (4R)-4-(4-Chloro-3-oxo-1,2-dihydro-isoindol-2-yl)-N-methyl-N-(1-pyridin-4-yl-piperidin-4-yl)-3,4-dihydro-2H-chromene-7-carboxylic acid amide] | 98 | 56
CN(C(=O)c1ccc2c(c1)[C@H](NC(=O)C1(c3ccccc3F)CC1)CC2)C1CCN(c2ccncc2)CC1 [Example H-46, (3R)-3-[[1-(2-Fluorophenyl)-cyclopropanecarbonyl]amino]-N-methyl-N-(1-pyridin-4-yl-piperidin-4-yl)-2,3-dihydro-1H-indene-5-carboxylic acid amide] | 100 | 103
CN(C(=O)c1ccc2c(c1)[C@H](NC(=O)C1(c3ccccc3F)CCCC1)CC2)C1CCN(c2ccncc2)CC1 [Example H-47, (3R)-3-[[1-(2-Fluorophenyl)-cyclopentanecarbonyl]amino]-N-methyl-N-(1-pyridin-4-yl-piperidin-4-yl)-2,3-dihydro-1H-indene-5-carboxylic acid amide] | 100 | 104
CN(C(=O)c1ccc2c(c1)[C@H](NC(=O)c1ccccc1Cl)CC2)C1CCN(Cc2ccnc(N3CCCC3)c2)CC1 [Example H-48, (3R)-3-[(2-Chloro-benzoyl)amino]-N-methyl-N-[1-[(2-pyrrolidin-1-yl-pyridin-4-yl)-methyl]-piperidin-4-yl]-2,3-dihydro-1H-indene-5-carboxylic acid amide] | 11 | 75
Cc1cc(N2CCC(CN(C)C(=O)c3ccc4c(c3)[C@H](NC(=O)c3ccccc3Cl)CC4)CC2)ccn1 [Example H-49, (3R)-3-[(2-Chloro-benzoyl)amino]-N-methyl-N-[[1-(2-methyl-pyridin-4-yl)-piperidin-4-yl]-methyl]-2,3-dihydro-1H-indene-5-carboxylic acid amide] | 85 | 101
COc1ccc(N2CCC(N(C)C(=O)c3ccc4c(c3)[C@H](NC(=O)c3ccccc3Cl)CC4)CC2)cc1 [Example H-50, (3R)-3-[(2-Chloro-benzoyl)amino]-N-[1-(4-methoxyphenyl)-piperidin-4-yl]-N-methyl-2,3-dihydro-1H-indene-5-carboxylic acid amide] | 23 | 86
CN(C(=O)c1ccc2c(c1)[C@H](NC(=O)C1(c3ccccc3Cl)CC1)CC2)C1CCN(c2ccncc2)CC1 [Example H-51, (3R)-3-[[1-(2-Chlorophenyl)-cyclopropanecarbonyl]amino]-N-methyl-N-(1-pyridin-4-yl-piperidin-4-yl)-2,3-dihydro-1H-indene-5-carboxylic acid amide] | 99 | 105
Cc1cc(N2CCC(CN(C)C(=O)c3ccc4c(c3)CC[C@H]4N3Cc4cccc(Cl)c4C3=O)CC2)ccn1 [Example H-52, (1R)-1-(4-Chloro-3-oxo-1,2-dihydro-isoindol-2-yl)-N-methyl-N-[[1-(2-methyl-pyridin-4-yl)-piperidin-4-yl]-methyl]-2,3-dihydro-1H-indene-5-carboxylic acid amide] | 98 | 73
CN(C(=O)c1ccc2c(c1)CC[C@H]2N1Cc2cccc(Cl)c2C1=O)C1CCN(Cc2ccnc(N3CCCC3)c2)CC1 [Example H-53, (1R)-1-(4-Chloro-3-oxo-1,2-dihydro-isoindol-2-yl)-N-methyl-N-[1-[(2-pyrrolidin-1-yl-pyridin-4-yl)-methyl]-piperidin-4-yl]-2,3-dihydro-1H-indene-5-carboxylic acid amide] | 56 | 50
CN(C(=O)c1ccc2c(c1)[C@H](NC(=O)c1ccccc1Cl)CC2)C1CCN(c2ccc(Cl)cc2)CC1 [Example H-54, (3R)-3-[(2-Chloro-benzoyl)amino]-N-[1-(4-chlorophenyl)-piperidin-4-yl]-N-methyl-2,3-dihydro-1H-indene-5-carboxylic acid amide] | 29 | 93
Cc1cc(N2CCC(N(C)C(=O)c3ccc4c(c3)[C@H](NC(=O)c3ccccc3Cl)CC4)CC2)ccn1 [Example H-55, (3R)-3-[(2-Chloro-benzoyl)amino]-N-methyl-N-[1-(2-methyl-pyridin-4-yl)-piperidin-4-yl]-2,3-dihydro-1H-indene-5-carboxylic acid amide] | 99 | 104
Cc1cc(N2CCC(CCNC(=O)c3ccc4c(c3)[C@H](NC(=O)c3ccccc3Cl)CC4)CC2)ccn1 [Example H-56, (3R)-3-[(2-Chloro-benzoyl)amino]-N-[2-[1-(2-methyl-pyridin-4-yl)-piperidin-4-yl]-ethyl]-2,3-dihydro-1H-indene-5-carboxylic acid amide] | 99 | 102
CN(C(=O)c1cc2c(cc1F)[C@H](NC(=O)c1ccccc1Cl)CC2)C1CCN(c2ccncc2)CC1 [Example H-57, (1R)-1-[(2-Chloro-benzoyl)amino]-6-fluoro-N-methyl-N-(1-pyridin-4-yl-piperidin-4-yl)-2,3-dihydro-1H-indene-5-carboxylic acid amide] | 100 | 100
